This note sets out measurements from PubChem BioAssay AID743508 (Broad Institute, 2014).

This assay has as its target Drosophila melanogaster bursicon receptor LGR2 (rickets). Description: LGR2 bursicon receptor antagonists, dose response, cell-based, HEK293, CRE-luciferase, beta-gal normalized, dry powder, set 2 (AID 743508). Conditions: HEK293 LGR2 CRE-luciferase cAMP reporter, antagonist.

Each structure is given as a SMILES string. pIC50: −log10 of the molar value. The source made the active and inactive calls. No rule for the calls is given here.

Consider `C[C@H](CO)N1C[C@H](C)[C@H](CN(C)C(=O)Nc2ccc3c(c2)OCO3)OCCCC[C@H](C)Oc2ccc(NC(=O)C3CCCCC3)cc2C1=O`, for which the pIC50 (as a rule, −log10 of the IC50, conventionally taken in molar units) was over 4.46. Same read-out and setting: the figure for `C[C@H](CO)N1C[C@H](C)[C@H](CN(C)C(=O)Nc2cccc3ccccc23)OCCCC[C@H](C)Oc2ccc(NC(=O)CCC(F)(F)F)cc2C1=O` is over 4.46; for `C[C@H](CO)N1C[C@H](C)[C@H](CN(C)C(=O)Nc2ccc(C(F)(F)F)cc2)OCCCC[C@H](C)Oc2ccc(NC(=O)NC3CCCCC3)cc2C1=O` it is over 4.46; for `C[C@H](CO)N1C[C@H](C)[C@H](CN(C)C(=O)Nc2ccc(F)cc2)OCCCC[C@H](C)Oc2ccc(NC(=O)C3CCCCC3)cc2C1=O` it is over 4.46. Consider `C[C@H](CO)N1C[C@H](C)[C@H](CN(C)C(=O)Nc2cccc3ccccc23)OCCCC[C@H](C)Oc2ccc(NC(=O)NC3CCCCC3)cc2C1=O`, for which the pIC50 is over 4.46. As to `Cc1ccc(S(=O)(=O)Nc2ccc3c(c2)C(=O)N([C@H](C)CO)C[C@@H](C)[C@H](CN(C)S(=O)(=O)c2cccs2)OCCCC[C@@H](C)O3)cc1`, the IC50 (in general, the concentration that gives 50% inhibition) is > 35 µM (inactive).

As for `C[C@H](CO)N1C[C@H](C)[C@H](CN(C)C(=O)Nc2ccccc2)OCCCC[C@H](C)Oc2ccc(NC(=O)Nc3ccc4c(c3)OCO4)cc2C1=O`, the pIC50 is over 4.46. In the case of `C[C@@H]1CN([C@@H](C)CO)C(=O)c2cc(NS(C)(=O)=O)ccc2O[C@@H](C)CCCCO[C@@H]1CN(C)Cc1ccc(C(F)(F)F)cc1`, the IC50 was > 35 µM (inactive).

As for `C[C@H]1CCCCO[C@H](CN(C)C(=O)Nc2cccc3ccccc23)[C@@H](C)CN([C@@H](C)CO)C(=O)c2cc(NS(=O)(=O)c3cn(C)cn3)ccc2O1`, the IC50 is > 35 µM (inactive).

With `C[C@H](CO)N1C[C@H](C)[C@H](CN(C)C(=O)Nc2ccc(F)cc2)OCCCC[C@H](C)Oc2ccc(NC(=O)NC3CCCCC3)cc2C1=O`, the pIC50 is over 4.46. Still for that read-out and setting: the figure for `C[C@H](CO)N1C[C@H](C)[C@H](CN(C)C(=O)Nc2ccc(F)cc2)OCCCC[C@H](C)Oc2ccc(NC(=O)Nc3ccccc3)cc2C1=O` is over 4.46; for `C[C@H]1CCCCO[C@@H](CN(C)C(=O)Nc2ccc(C(F)(F)F)cc2)[C@@H](C)CN([C@@H](C)CO)C(=O)c2cc(NC(=O)CCC(F)(F)F)ccc2O1` it is over 4.46. Consider `Cc1noc(C)c1S(=O)(=O)Nc1ccc2c(c1)C(=O)N([C@H](C)CO)C[C@H](C)[C@H](CN(C)C(=O)Nc1ccc(F)cc1)OCCCC[C@@H](C)O2`, for which the IC50 was > 35 µM (inactive). For `C[C@H](CO)N1C[C@H](C)[C@H](CN(C)C(=O)Nc2ccccc2)OCCCC[C@H](C)Oc2ccc(NC(=O)CCC(F)(F)F)cc2C1=O`, the pIC50 was over 4.46.

Take `C[C@H]1CCCCO[C@@H](CN(C)S(=O)(=O)c2ccc(Cl)cc2)[C@@H](C)CN([C@@H](C)CO)C(=O)c2cc(NC(=O)NC3CCCCC3)ccc2O1`: the pIC50 was over 4.46. Turning to `COc1ccc(NC(=O)N(C)C[C@@H]2OCCCC[C@H](C)Oc3ccc(NC(=O)NC4CCCCC4)cc3C(=O)N([C@H](C)CO)C[C@@H]2C)cc1`, the pIC50 was over 4.46. On to `C[C@H]1CCCCO[C@@H](CN(C)C(=O)Nc2ccc3c(c2)OCO3)[C@@H](C)CN([C@@H](C)CO)C(=O)c2cc(NC(=O)NC3CCCCC3)ccc2O1`, for which the pIC50 is over 4.46. Take `C[C@@H]1CN([C@@H](C)CO)C(=O)c2cc(NC(=O)c3ccncc3)ccc2O[C@@H](C)CCCCO[C@H]1CN(C)C(=O)Nc1cccc2ccccc12`: the IC50 was > 35 µM (inactive).

For the compound `C[C@H](CO)N1C[C@H](C)[C@H](CN(C)C(=O)Nc2ccc(C(F)(F)F)cc2)OCCCC[C@H](C)Oc2ccc(NC(=O)CCC(F)(F)F)cc2C1=O`, the pIC50 is over 4.46. In the case of `C[C@H](CO)N1C[C@H](C)[C@H](CN(C)C(=O)Cc2ccccc2)OCCCC[C@H](C)Oc2ccc(NC(=O)Nc3ccc(C(F)(F)F)cc3)cc2C1=O`, the IC50 was > 35 µM (inactive). As for `C[C@H]1CCCCO[C@@H](CN(C)C(=O)Nc2ccc(F)cc2)[C@@H](C)CN([C@@H](C)CO)C(=O)c2cc(NC(=O)C3CCCCC3)ccc2O1`, the pIC50 is over 4.46. Same read-out and setting: the figure for `C[C@H](CO)N1C[C@H](C)[C@H](CN(C)C(=O)Nc2ccccc2)OCCCC[C@H](C)Oc2ccc(NC(=O)NC3CCCCC3)cc2C1=O` is over 4.46; for `C[C@H](CO)N1C[C@H](C)[C@H](CN(C)C(=O)Nc2cccc3ccccc23)OCCCC[C@H](C)Oc2ccc(NC(=O)C3CCCCC3)cc2C1=O` it is over 4.46. Regarding `CC(C)NC(=O)Nc1ccc2c(c1)C(=O)N([C@H](C)CO)C[C@@H](C)[C@H](CN(C)S(C)(=O)=O)OCCCC[C@H](C)O2`, the IC50 is > 35 µM (inactive). With `C[C@H](CO)N1C[C@H](C)[C@H](CN(C)C(=O)Nc2ccccc2)OCCCC[C@H](C)Oc2ccc(NC(=O)Nc3ccccc3)cc2C1=O`, the pIC50 was over 4.46. For the compound `COc1ccc(NC(=O)Nc2ccc3c(c2)C(=O)N([C@H](C)CO)C[C@H](C)[C@H](CN(C)CC2CCCCC2)OCCCC[C@H](C)O3)cc1`, the IC50 was > 35 µM (inactive).

Turning to `COc1ccc(S(=O)(=O)N(C)C[C@@H]2OCCCC[C@H](C)Oc3ccc(NS(=O)(=O)c4ccc(Cl)cc4)cc3C(=O)N([C@@H](C)CO)C[C@@H]2C)cc1`, the pIC50 was over 4.46. Still for that read-out and setting: the figure for `C[C@H](CO)N1C[C@H](C)[C@H](CN(C)C(=O)Nc2cccc3ccccc23)OCCCC[C@H](C)Oc2ccc(NC(=O)c3ccccc3)cc2C1=O` is over 4.46. Consider `C[C@H](CO)N1C[C@H](C)[C@H](CN(C)C(=O)Nc2ccc3c(c2)OCO3)OCCCC[C@H](C)Oc2ccc(NC(=O)NC3CCCCC3)cc2C1=O`, for which the pIC50 is over 4.46. The same measure, in the same setting: the result for `COc1ccc(NC(=O)N(C)C[C@@H]2OCCCC[C@H](C)Oc3ccc(NC(=O)C4CCCCC4)cc3C(=O)N([C@H](C)CO)C[C@@H]2C)cc1` reads over 4.46. On to `COc1ccc(S(=O)(=O)Nc2ccc3c(c2)C(=O)N([C@H](C)CO)C[C@H](C)[C@H](CN(C)S(=O)(=O)c2ccc(F)cc2)OCCCC[C@@H](C)O3)cc1`, for which the IC50 was > 35 µM (inactive). With `COc1ccc(S(=O)(=O)Nc2ccc3c(c2)C(=O)N([C@@H](C)CO)C[C@@H](C)[C@H](CN(C)C(=O)Nc2cccc4ccccc24)OCCCC[C@H](C)O3)cc1`, the IC50 is > 35 µM (inactive). With `COc1ccc(S(=O)(=O)N(C)C[C@@H]2OCCCC[C@H](C)Oc3ccc(NS(=O)(=O)c4ccc(F)cc4)cc3C(=O)N([C@@H](C)CO)C[C@@H]2C)cc1`, the pIC50 was over 4.46. Same read-out and setting: the result for `C[C@H](CO)N1C[C@H](C)[C@H](CN(C)C(=O)Nc2ccccc2)OCCCC[C@H](C)Oc2ccc(NC(=O)C3CCCCC3)cc2C1=O` reads over 4.46; that for `C[C@@H]1CCCCO[C@H](CN(C)CC2CCCCC2)[C@H](C)CN([C@H](C)CO)C(=O)c2cc(NS(=O)(=O)c3ccccc3)ccc2O1`, over 4.46; that for `C[C@H](CO)N1C[C@H](C)[C@H](CN(C)C(=O)Nc2ccc(F)cc2)OCCCC[C@H](C)Oc2ccc(NC(=O)Nc3ccc(F)cc3)cc2C1=O`, over 4.46.

`C[C@H]1CCCCO[C@@H](CN(C)C(=O)Nc2ccccc2)[C@@H](C)CN([C@@H](C)CO)C(=O)c2cc(NC(=O)NC3CCCCC3)ccc2O1`: the pIC50 was over 4.46. With `COc1ccc(S(=O)(=O)Nc2ccc3c(c2)C(=O)N([C@@H](C)CO)C[C@H](C)[C@@H](CN(C)C(=O)Nc2cccc4ccccc24)OCCCC[C@H](C)O3)cc1`, the IC50 was > 35 µM (inactive).
